Assay results from patent US20250154219A1, “PEPTIDE ANALOGS” (Adepthera LLC, priority 2017, published 2025).

Key:
Assay type in all cases: cell-based
apelin receptor AGTRL1 = target: T1, apelin receptor AGTRL1 (Homo sapiens, UniProt P35414); assay: AGTRL1 cAMP assay
T1 sequence (P35414 1-380): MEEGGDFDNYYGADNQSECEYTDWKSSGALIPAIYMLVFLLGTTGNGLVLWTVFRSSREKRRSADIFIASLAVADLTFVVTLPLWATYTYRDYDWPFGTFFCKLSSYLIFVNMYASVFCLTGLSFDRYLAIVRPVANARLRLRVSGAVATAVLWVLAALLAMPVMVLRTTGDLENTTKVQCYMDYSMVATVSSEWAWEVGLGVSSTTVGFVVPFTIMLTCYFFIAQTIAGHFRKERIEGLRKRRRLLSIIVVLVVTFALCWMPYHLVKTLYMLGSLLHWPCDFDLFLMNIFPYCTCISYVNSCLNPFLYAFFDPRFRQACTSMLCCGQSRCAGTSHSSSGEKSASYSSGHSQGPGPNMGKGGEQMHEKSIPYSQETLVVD
Experimental: The agonistic activities toward SSTR2, NTSR1, and AGTRL1 were assayed with an SSTR2 arrestin assay, an NTSR1 calcium flux assay, and an AGTRL1 CAMP assay (Discoverx Inc.), respectively.
(§1) For the analysis of Gs-coupled CAMP production, cAMP Hunter cell lines were expanded from freezer stocks, and cells were seeded in a total volume of 20 μL into white walled, 384-well microplates and incubated at 37 C for the appropriate time prior to testing. The CAMP modulation was determined using the DiscoverX HitHunter CAMP XS+ assay. For agonistic activity determination, cells were incubated with sample to induce response. Media was aspirated from cells and replaced with 15 μL 2:1 HBSS/10 mM Hepes: CAMP XS+Ab reagent. […] For Gs-coupled agonistic assays, percentage activity is calculated using the following formula: % Activity=100%×(mean RLU of test sample−mean RLU of vehicle control)/(mean RLU of MAX control−mean RLU of vehicle control).

CLR/RAMP2 receptor [1] = target: T2, CLR/RAMP2 receptor (Homo sapiens, UniProt O60895+Q16602); assay: CLR/RAMP2 arrestin receptor-activation assay (agonist mode); details: for CLR/RAMP2 Max Activity % of positive control: agonist mode, positive control ADM; for EC50: CHO-K1 cells stably expressing CLR/RAMP2, arrestin assay; for receptor selectivity of agonists, in words: CLR/RAMP2 versus CLR/RAMP1;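 on all read-outs here: agonist dose-response in recombinant cell lines stably expressing each receptor complex, duplicate wells over 10 threefold dilutions from a top concentration of 1.0 µM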
T2 sequence (Q16602 23-461): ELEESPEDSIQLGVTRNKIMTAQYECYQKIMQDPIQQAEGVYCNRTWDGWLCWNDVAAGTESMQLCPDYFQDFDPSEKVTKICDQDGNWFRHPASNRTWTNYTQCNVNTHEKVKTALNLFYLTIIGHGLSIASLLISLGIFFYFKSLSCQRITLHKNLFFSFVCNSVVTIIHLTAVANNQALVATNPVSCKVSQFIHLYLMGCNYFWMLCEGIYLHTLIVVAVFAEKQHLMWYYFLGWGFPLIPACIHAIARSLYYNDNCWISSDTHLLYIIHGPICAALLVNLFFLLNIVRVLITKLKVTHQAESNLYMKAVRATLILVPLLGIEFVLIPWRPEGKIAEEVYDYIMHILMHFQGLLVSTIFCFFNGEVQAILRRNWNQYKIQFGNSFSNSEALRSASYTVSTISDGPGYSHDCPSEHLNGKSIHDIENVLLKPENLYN
T2 sequence (O60895 43-175): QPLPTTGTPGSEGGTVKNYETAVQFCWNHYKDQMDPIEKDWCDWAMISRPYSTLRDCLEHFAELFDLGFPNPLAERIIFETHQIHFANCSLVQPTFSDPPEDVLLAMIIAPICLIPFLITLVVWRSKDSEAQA
Experimental: (§2) Using a receptor activation assay, the dose-dependent stimulatory response of peptide agonists on a CLR/RAMP1 receptor, a CLR/RAMP2, or a CLR/RAMP3 receptor complex was determined. A cell line carrying the recombinant CLR/RAMP1, CLR/RAMP2, or a CLR/RAMP3 receptor was employed in the assay. Peptide agonist activities were tested, in duplicate, at 10 different concentrations, starting with 1.0 μM and serially diluted 3-fold, in DMSO. […] The CLR/RAMP1 CAMP, CLR/RAMP2 arrestin, and CLR/RAMP3 CAMP assays (DiscoveRx, Fremont, Calif.) were used.
(§3) The pharmacology of superagonistic activity of synthetic analogs was studied in cells that stably express CLR/RAMP1 (1321N1 cells), CLR/RAMP2 (CHO-K1 cells), or CLR/RAMP3 (CHO-K1 cells) receptors.
For the Arrestin assays, PathHunter cell lines (Discoverx Inc.) were expanded from freezer stocks, and seeded in a total volume of 20 μL into white walled, 384-well microplates and incubated at 37 C for the appropriate time prior to testing. For agonist determination, cells were incubated with sample to induce response. […] The microplates were read following signal generation with a PerkinElmer Envision™ instrument for chemiluminescent signal detection.
The compound activity was analyzed using a CBIS data analysis suite (ChemInnovation, CA). For agonist mode assays, percentage activity was calculated using the following formula:
% Activity=100%×(mean RLU of test sample−mean RLU of vehicle control)/(mean MAX control ligand−mean RLU of vehicle control).

CLR/RAMP1 receptor [2] = target: T3, CLR/RAMP1 receptor (Homo sapiens, UniProt O60894+Q16602); assay: CLR/RAMP1 cAMP receptor-activation assay (agonist mode); details: for CLR/RAMP1 Max Activity % of positive control: agonist mode, positive control β-CGRP;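 on all read-outs here: Dose–response over 10 threefold dilutions from 1.0 µM, run in duplicate, luminescent cAMP detection (RLU), activity scaled between vehicle control (0%) and maximal control (100%)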
T3 sequence (Q16602 23-461): as the sequence (Q16602 23-461) above
T3 sequence (O60894 27-148): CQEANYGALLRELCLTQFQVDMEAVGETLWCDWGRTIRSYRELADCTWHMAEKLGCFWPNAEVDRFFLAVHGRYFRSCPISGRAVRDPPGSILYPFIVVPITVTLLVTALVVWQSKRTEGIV
Experimental: as §2, §3, §1

CLR/RAMP2 receptor [3] = target: T2, CLR/RAMP2 receptor; assay: CLR/RAMP2 arrestin assay, antagonist mode (ADM-stimulated)
Experimental: A cell line carrying the recombinant CLR/RAMP1, CLR/RAMP2, or a CLR/RAMP3 receptor was employed in the assay. Peptide agonist activities were tested, in duplicate, at 10 different concentrations, starting with 1.0 μM and serially diluted 3-fold, in DMSO. […] The CLR/RAMP1 CAMP, CLR/RAMP2 arrestin, and CLR/RAMP3 CAMP assays (DiscoveRx, Fremont, Calif.) were used.
For the analysis of antagonistic activity, synthetic analogs were pre-incubated with the cells before adding the reference ligand at its EC80. […] For antagonistic activity determination, cells were pre-incubated with antagonist followed by agonist challenge at the EC80 concentration. […] Then, 5 μL of 6× EC80 agonist in assay buffer was added to the cells and incubated at 37 C or room temperature for 90 or 180 minutes.
The microplates were read following signal generation with a PerkinElmer Envision™ instrument for chemiluminescent signal detection.
% Activity=100%×(mean RLU of test sample−mean RLU of vehicle control)/(mean MAX control ligand−mean RLU of vehicle control). For antagonistic activity assays, percentage inhibition was calculated using the following formula: % Inhibition=100%×(1−(mean RLU of test sample−mean RLU of vehicle control)/(mean RLU of EC80 control−mean RLU of vehicle control)).

CLR/RAMP1 receptor [4] = target: T3, CLR/RAMP1 receptor; assay: CLR/RAMP1 cAMP assay, antagonist mode (CGRP-stimulated); details: for receptor selectivity of antagonists, in words: CLR/RAMP1 versus CLR/RAMP2; for CLR/RAMP1 Max Activity % of positive control (antagonist): antagonist mode
Experimental: (§4) A cell line carrying the recombinant CLR/RAMP1, CLR/RAMP2, or a CLR/RAMP3 receptor was employed in the assay. […] The CLR/RAMP1 CAMP, CLR/RAMP2 arrestin, and CLR/RAMP3 CAMP assays (DiscoveRx, Fremont, Calif.) were used.
(§5) For the analysis of antagonistic activity, synthetic analogs were pre-incubated with the cells before adding the reference ligand at its EC80. […] For the determination of antagonistic activity, cells were pre-incubated with sample followed by agonist challenge at the EC80 concentration. […] After appropriate compound incubation, assay signal was generated through incubation with 20 μL cAMP XS+ED/CL lysis cocktail for one hour followed by incubation with 20 μL cAMP XS+EA reagent for three hours at room temperature. Microplates were read following signal generation with a PerkinElmer Envision™ instrument for chemiluminescent signal detection.
(§6) For the antagonistic activity assay, percentage inhibition is calculated using the following formula: % Inhibition=100%×(1−(mean RLU of test sample−mean RLU of vehicle control)/(mean RLU of EC80 control−mean RLU of vehicle control)).

[5] = target: neurotensin receptor 1 (NTSR1) (Homo sapiens, UniProt P30989); assay: NTSR1 calcium flux assay
Chain of neurotensin receptor 1 (NTSR1) (P30989 whole entry): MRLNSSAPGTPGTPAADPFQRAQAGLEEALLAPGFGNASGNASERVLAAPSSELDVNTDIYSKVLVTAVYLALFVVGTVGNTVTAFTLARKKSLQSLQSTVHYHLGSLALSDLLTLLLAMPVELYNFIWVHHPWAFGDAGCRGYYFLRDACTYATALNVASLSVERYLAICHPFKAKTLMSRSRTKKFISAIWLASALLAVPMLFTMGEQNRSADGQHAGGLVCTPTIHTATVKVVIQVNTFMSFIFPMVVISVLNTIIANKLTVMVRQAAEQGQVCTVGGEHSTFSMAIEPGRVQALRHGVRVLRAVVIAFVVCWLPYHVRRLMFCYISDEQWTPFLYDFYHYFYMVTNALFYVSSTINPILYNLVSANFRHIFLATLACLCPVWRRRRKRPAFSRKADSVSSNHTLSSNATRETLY
Experimental: The agonistic activities toward SSTR2, NTSR1, and AGTRL1 were assayed with an SSTR2 arrestin assay, an NTSR1 calcium flux assay, and an AGTRL1 CAMP assay (Discoverx Inc.), respectively. The antagonistic activities toward BDKRB1 and AGTR1 were assayed with a BDKRB1 calcium flux assay and an AGTR1 calcium flux assay (Discoverx Inc.), respectively.
For the analysis of calcium flux, cell lines were expanded from freezer stocks and seeded in a total volume of 20 μL into black-walled, clear-bottom, Poly-D-lysine coated 384-well microplates and incubated at 37 C for the appropriate time prior to testing. […] Compound agonist activity was measured on a FLIPR Tetra (MDS), and calcium mobilization was monitored for 2 minutes and 10 μL 4× sample in HBSS/20 mM Hepes was added to the cells 5 seconds into the assay.
The compound activity was analyzed using a CBIS data analysis suite (ChemInnovation, CA), and percentage activity is calculated using the following formula: % Activity=100%×(mean RFU of test sample−mean RFU of vehicle control)/(mean MAX RFU control ligand−mean RFU of vehicle control). For antagonist assays, percentage inhibition is calculated using the following formula: % Inhibition=100%×(1−(mean RFU of test sample−mean RFU of vehicle control)/(mean RFU of EC80 control−mean RFU of vehicle control)).

CLR/RAMP3 receptor [6] = target: T4, CLR/RAMP3 receptor (Homo sapiens, UniProt O60896+Q16602); assay: CLR/RAMP3 cAMP assay, antagonist mode
T4 sequence (Q16602 23-461): as the sequence (Q16602 23-461) above
T4 sequence (O60896 24-148): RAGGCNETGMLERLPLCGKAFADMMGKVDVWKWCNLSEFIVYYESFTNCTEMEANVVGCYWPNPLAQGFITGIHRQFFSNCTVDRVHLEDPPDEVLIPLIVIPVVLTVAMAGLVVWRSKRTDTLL
Experimental: as §4, §5, §6

CLR/RAMP3 receptor [7] = target: T4, CLR/RAMP3 receptor; assay: CLR/RAMP3 cAMP receptor-activation assay (agonist mode); details: for EC50: CHO-K1 cells stably expressing CLR/RAMP3, cAMP assay; for CLR/RAMP3 Max Activity % of positive control: agonist mode
Experimental: as §2, §3, §1

Row | Substance | CLR/RAMP2 Max Activity % of positive control (CLR/RAMP2 receptor [1]) | CLR/RAMP1 Max Activity % of positive control (CLR/RAMP1 receptor [2]) | CLR/RAMP2 Max Activity % of positive control (antagonist) (CLR/RAMP2 receptor [3]) | CLR/RAMP1 Max Activity % of positive control (antagonist) (CLR/RAMP1 receptor [4]) | also measured
1 | (G1p)RPRLSHKGPMPF [Apelin 13, reference compound] | – | – | – | – | AGTRL1 Max Activity (apelin receptor AGTRL1): 100 % of positive controls
2 | (Glp)RPRLSHKGP(Nle)PF-miniPEG-K(PAL)GCRFGTCTVQKLAHQIYQFTDKDVAPRSKISPQGY-NH2 [SEQ ID NO: 228] | 74 % of positive control | 130 % of positive control | – | – | AGTRL1 Max Activity (apelin receptor AGTRL1): 97 % of positive controls
3 | Ace-KRPPGFSPFR-miniPEG-K(Pal)VQKLAHQIYQFTDKDVAPRSKISPQGY-NH2 [SEQ ID NO: 149] | – | – | 99 % of positive control | 101 % of positive control | receptor selectivity of antagonists, in words (CLR/RAMP1 receptor [4]): pan-specific
4 | Ace-NFVPTNVGPFAF-NH2 [SEQ ID NO: 144] | – | – | 0 % of positive control | 98 % of positive control | antagonistic activity toward CLR/RAMP1 and/or CLR/RAMP2, in words (CLR/RAMP1 receptor [4]): minimal antagonizing activities
5 | Ace-Y(D-Ala)GF(D-Leu)-miniPEG-K(Pal)VQKLSAPVDPSSPHSY-NH2 [SEQ ID NO: 145] | – | – | 100 % of positive control | 99 % of positive control | receptor selectivity of antagonists, in words (CLR/RAMP1 receptor [4]): CLR/RAMP1-selective
6 | Ace-YGGFLRRIRPKLK-miniPEG-K(Pal)VQKLSAPVDPSSPHSY-NH2 [SEQ ID NO: 146] | – | – | 98 % of positive control | 102 % of positive control | receptor selectivity of antagonists, in words (CLR/RAMP1 receptor [4]): CLR/RAMP1-selective
7 | Ace-YNWNSFGLRF-miniPEG-K(PAL)VQKLAHQIYQFTDKDVAPRSKISPQGY-NH2 [SEQ ID NO: 148] | – | – | 97 % of positive control | 100 % of positive control | receptor selectivity of antagonists, in words (CLR/RAMP1 receptor [4]): pan-specific
8 | KKPYIL [[Lys 8,9] Neurotensin, reference compound] | – | – | – | – | NTSR1 Max Activity [5]: 100 % of positive controls
9 | PEG20,000-K[PAL]VQKLAHQIYQFTDKDSAPVDPSSPHSY-NH2 [SEQ ID NO: 190] | – | – | 51 % of positive control | 104 % of positive control | –
10 | PEG2000-K[PAL]VQKLAHQIYQFTDKDSAPVDPSSPHSY-NH2 [SEQ ID NO: 191] | – | – | 101 % of positive control | 98 % of positive control | –
11 | PEG5000-K[PAL]VQKLAHQIYQFTDKDSAPVDPSSPHSY-NH2 [SEQ ID NO: 192] | – | – | 104 % of positive control | 101 % of positive control | –
12 | Pal-KVQKLAHQSAPVDPSSPHSY-NH2 [SEQ ID NO: 124] | – | – | 103 % of positive control | 95 % of positive control | CLR/RAMP3 Max Activity % of positive control (antagonist) (CLR/RAMP3 receptor [6]): 102 % of positive control
13 | Pal-KVQKLNFVPTNVGSKAF-NH2 [SEQ ID NO: 142] | – | – | 80 % of positive control | 100 % of positive control | –
14 | Pal-KVQNLSAPVDPSSPHSY-NH2 [SEQ ID NO: 141] | – | – | 14 % of positive control | 43 % of positive control | antagonistic activity toward CLR/RAMP1 and/or CLR/RAMP2, in words (CLR/RAMP1 receptor [4]): minimal antagonizing activities
15 | Pyr(glu)-LYENKPRRPYIL-miniPEG-K(Pal)VQKLSAPVDPSSPHSY-NH2 [SEQ ID NO: 224] | – | – | 100 % of positive control | 99 % of positive control | NTSR1 Max Activity [5]: 57 % of positive controls
16 | miniPEG-K(PAL)GCRFGTCTVQKLAHQIYQFTDKDKDNSAPVDPSSPHSY-NH2 [SEQ ID NO: 28] | 143 % of positive control | 54 % of positive control | – | – | EC50 (CLR/RAMP2 receptor [1]): 0.5 nM; EC50 (CLR/RAMP3 receptor [7]): 0.06 nM; CLR/RAMP3 Max Activity % of positive control (CLR/RAMP3 receptor [7]): 117 % of positive control
17 | miniPEG-K(PAL)GCRFGTCTVQKLAHQIYQFTDKDKDNVAPRSKISPQGY-NH2 [SEQ ID NO: 69] | 147 % of positive control | 70 % of positive control | – | – | CLR/RAMP3 Max Activity % of positive control (CLR/RAMP3 receptor [7]): 127 % of positive control
18 | miniPEG-K(PAL)GCRFGTCTVQKLAHQIYQFTDKDSAPVDPSSPHSY-NH2 [SEQ ID NO: 48] | 77 % of positive control | 78 % of positive control | – | – | EC50 (CLR/RAMP2 receptor [1]): 0.2 nM; EC50 (CLR/RAMP1 receptor [2]; 1321N1 cells stably expressing CLR/RAMP1, cAMP assay): 0.3 nM; EC50 (CLR/RAMP3 receptor [7]): 0.07 nM; CLR/RAMP3 Max Activity % of positive control (CLR/RAMP3 receptor [7]): 141 % of positive control
19 | miniPEG-K(PAL)GCRFGTCTVQKLAHQIYQFTDKDVAPR(D-Ser)KISPQGY-NH2 [SEQ ID NO: 213] | 107 % of positive control | 115 % of positive control | – | – | –
20 | miniPEG-K(PAL)GCRFGTCTVQKLAHQIYQFTDKDVAPRSKISP(D-Gln)GY-NH2 [SEQ ID NO: 214] | 99 % of positive control | 112 % of positive control | – | – | receptor selectivity of agonists, in words (CLR/RAMP2 receptor [1]): CLR/RAMP2-selective
21 | miniPEG-K(PAL)GCRFGTCTVQKLAHQIYQFTDKDVAPRSKISPQGY-NH2 [SEQ ID NO: 101] | 74 % of positive control | 56 % of positive control | – | – | receptor selectivity of agonists, in words (CLR/RAMP2 receptor [1]): CLR/RAMP2-selective; CLR/RAMP3 Max Activity % of positive control (CLR/RAMP3 receptor [7]): 129 % of positive control
22 | miniPEG-K(PAL)TKKTLRTGCRFGTCTVQKLAHQIYQFTDKDKDNVAPRSKISPQGY-NH2 [SEQ ID NO: 70] | 68 % of positive control | 69 % of positive control | – | – | –
23 | miniPEG-K(PAL)VQKLSAPVDPSSPHSY-NH2 [SEQ ID NO: 140] | – | – | 90 % of positive control | 100 % of positive control | receptor selectivity of antagonists, in words (CLR/RAMP1 receptor [4]): CLR/RAMP1-selective
24 | miniPEG-TK(Pal)KTLRTGCRFGTCTVQKLAHQIYQFTDKDKDNVAPVDPSSPHSY-NH2 [SEQ ID NO: 42] | 76 % of positive control | 56 % of positive control | – | – | –
25 | olcegepant [BIBN4096, reference compound] | 0 % of positive control | 105 % of positive control | 0 % of positive control | 105 % of positive control | –
